Measured values reported in patent publication US20260373266A1, “PROTEIN DEGRADERS AND USES THEREOF” (KYMERA THERAPEUTICS, INC., priority 2022, published 2026).
Like-named read-outs stand apart in the source and are kept apart here.

Biological target: T1, DCAF1 WD40 domain (residues 1077-1390) (Homo sapiens, UniProt Q9Y4B6)
T1 construct: DCAF1 WD40 domain (residues 1077-1390)
Assay: DCAF1 binding assay by SPR (Biacore 8K+), DCAF1-3 KD
Conditions: 25 °C

T1 sequence (Q9Y4B6 1077-1390): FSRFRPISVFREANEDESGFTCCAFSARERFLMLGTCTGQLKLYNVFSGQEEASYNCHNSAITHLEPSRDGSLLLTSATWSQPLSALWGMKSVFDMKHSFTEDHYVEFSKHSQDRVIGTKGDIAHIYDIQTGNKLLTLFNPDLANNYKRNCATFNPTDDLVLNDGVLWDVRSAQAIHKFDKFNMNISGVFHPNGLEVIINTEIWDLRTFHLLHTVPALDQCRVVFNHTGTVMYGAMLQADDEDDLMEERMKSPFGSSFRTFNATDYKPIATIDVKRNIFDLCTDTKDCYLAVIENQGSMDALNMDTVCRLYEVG

Row | Kd (read-out: DCAF1-3 SPR (KD)) [µM] | Kd (DCAF1-3 SPR (KD)) [µM] | SMILES
1 | 10 to 100 |  | NC[C@H]1C[C@H](Nc2cc(N3CCCCC3)ccn2)CN(c2cccc(F)c2)C1 [I-1039]
2 | > 200 |  | C[C@@H](O)c1cncc(N2CCC[C@@H](Nc3cc(N4CCOCC4)ccn3)C2)c1 [I-484]
3 | > 200 |  | CS(=O)(=O)CCc1ccc(F)c(-c2[nH]ncc2C(=O)N[C@H](CC(N)=O)c2cccc(Cl)c2)c1 [I-531]
4 | > 200 |  | NC(=O)C[C@H](NC(=O)c1n[nH]nc1-c1ncccc1F)c1cccc(Cl)c1 [I-201]
5 | 10 to 100 |  | Cc1cn2cc(N3CCC[C@@H](Nc4cc(N5CCOCC5)ccn4)C3)ccc2n1 [I-763]
6 | > 200 |  | NC(=O)C[C@H](NC(=O)c1cnn(C(=O)c2ccccc2)c1-c1ccccc1F)c1cccc(Cl)c1 [I-173]
7 | 10 to 100 |  | NC(=O)OCc1cc(F)cc(N2CCC[C@@H]3[C@H]2CCN3c2cc(N3CC4CC(C4)C3)ccn2)c1 [I-1036]
8 | 100 to 200 |  | Cc1cccc(F)c1-c1[nH]ncc1C(=O)N[C@H](CC(N)=O)c1cc(Cl)cc(Cl)c1 [I-735]
9 | > 200 |  | Fc1cccc(N2CCC[C@@H](N(Cc3ccccc3)c3cc(N4CCOCC4)ncn3)C2)c1 [I-387]
10 | 10 to 100 |  | Oc1cc(N[C@@H]2CCCN(c3cccc(F)c3)C2)cc(N2CCOCC2)c1 [I-564]
11 | > 200 |  | Fc1cccc(N2CCC[C@@H](Nc3cc(C4=CCCOC4)ccn3)C2)c1 [I-122]
12 | > 200 |  | O=C(O)CCN(c1cc(N2CCOCC2)ccn1)[C@@H]1CCCN(c2cccc(F)c2)C1 [I-288]
13 | 10 to 100 |  | OCCC[C@H]1C[C@@H]2[C@H](CCCN2c2cccc(F)c2)N1c1cc(N2CCCCC2)ccn1 [I-826]
14 | 10 to 100 |  | NC[C@@H]1CC[C@@H](Nc2cc(N3CCCCC3)ccn2)CN1c1cccc(F)c1 [I-1023]
15 | > 200 |  | Cc1n[nH]cc1C(=O)N[C@@H](CC(N)=O)c1cccc(Cl)c1 [I-107]
16 | < 10 |  | NCCOCCOCCOCCC1CCN(c2ccnc(N3CC[C@@H]4[C@H]3CCCN4c3cccc(F)c3)c2)CC1 [I-649]
17 | < 10 |  | NC(=O)Cc1cccc(N2CCC[C@H]3[C@@H]2CCN3c2cc(N3CCCCC3)ccn2)c1 [I-942]
18 | > 200 |  | C[C@@]1(Nc2cc(N3CCOCC3)ccn2)CCCN(c2cccc(F)c2)C1 [I-500]
19 | 10 to 100 |  | Cc1ccc(Cl)cc1[C@@H](CC(N)=O)NC(=O)c1cn[nH]c1-c1ccccc1F [I-584]
20 | > 200 |  | C=CC(=O)N1CC(c2n[nH]cc2C(=O)N[C@@H](CC(N)=O)c2cccc(Cl)c2)C1 [I-455]
21 | > 200 |  | NS(=O)(=O)[C@@H]1[C@H](Nc2cc(N3CCOCC3)ccn2)CCCN1c1cccc(F)c1 [I-283]
22 | < 10 |  | C[C@@H](C(N)=O)[C@H](NC(=O)c1c[nH]nc1-c1ccccc1F)c1cccc(Cl)c1 [I-148]

Row | Kd (read-out: DCAF1-3 SPR (KD)) [µM] | Kd (DCAF1-3 SPR (KD)) [µM] | SMILES
23 | > 200 |  | O=C(N[C@H](c1cccc(Cl)c1)[C@H]1CCNC1=O)c1c[nH]nc1-c1ccccc1F [I-192]
24 | < 10 |  | Cc1cccc(C)c1-c1[nH]ncc1C(=O)N[C@@H](CC(N)=O)c1cccc(Cl)c1 [I-595]
25 | > 200 |  | NC(=O)C[C@H](NC(=O)c1cn[nH]c1-c1ccccc1F)c1cccc(O)c1 [I-129]
26 | 100 to 200 |  | c1ccc2c(N3CCC[C@@H](Nc4cc(N5CCOCC5)ccn4)C3)noc2c1 [I-73]
27 | 10 to 100 |  | NC(=O)C[C@H](NC(=O)c1c[nH]nc1-c1cc(C(=O)O)ccc1F)c1cccc(Cl)c1 [I-523]
28 | 100 to 200 |  | C=CC(=O)N1CCCC(c2[nH]ncc2C(=O)N[C@@H](CC(N)=O)c2cccc(Cl)c2)C1 (stereo partly shown) [I-542]
29 | > 200 |  | Fc1cccc(N2CCC[C@@H](N(c3cccnc3)c3cc(N4CCOCC4)ccn3)C2)c1 [I-306]
30 | > 200 |  | CS(=O)(=O)CCCC(=O)N1CCC[C@@H](Nc2cc(N3CCOCC3)ccn2)C1 [I-768]
31 | 10 to 100 |  | N#Cc1ccc(-c2[nH]ncc2C(=O)N[C@@H](CC(N)=O)c2cccc(Cl)c2)cc1 [I-128]
32 | 10 to 100 |  | NCCCCCCCCCCCCCCC1CCN(c2ccnc(N3CC[C@@H]4[C@H]3CCCN4c3cccc(F)c3)c2)CC1 [I-725]
33 | > 200 |  | C=CC(=O)NC#Cc1n[nH]cc1C(=O)N[C@@H](CC(N)=O)c1cccc(Cl)c1 [I-473]
34 | > 200 |  | Fc1cccc(N2CCC[C@H]3[C@@H]2CCN3c2cc(N3CC4CC(C4)C3)ccn2)c1 [I-624]
35 | < 10 |  | Fc1cccc(N2CCC[C@@H](N3CCc4c(N5CC6CC(C6)C5)ccnc43)C2)c1 [I-841]
36 | > 200 |  | NC(=O)C[C@H](NC(=O)c1[nH]nc(NC2CCCCC2)c1-c1ccccc1F)c1cccc(Cl)c1 [I-171]
37 | > 200 |  | c1cnc2c(N3CCC[C@@H](Nc4cc(N5CCOCC5)ncn4)C3)cccc2c1 [I-396]
38 | > 200 |  | Fc1cccc(N2CCC[C@@H](N(CC(F)F)c3cc(N4CCOCC4)ccn3)C2)c1 [I-257]
39 | 100 to 200 |  | O=C1C[C@H]([C@@H](NC(=O)c2cn[nH]c2-c2ccccc2F)c2cccc(Cl)c2)CN1 [I-559]
40 | 100 to 200 |  | c1cc2ccnc(N3CCC[C@@H](Nc4cc(N5CCOCC5)ccn4)C3)c2cn1 [I-68]
41 | 100 to 200 |  | NC(=O)N1CC2(CCCN(c3cccc(F)c3)C2)Nc2cc(N3CCCCC3)ncc21 (stereo not shown) [I-1006]
42 | > 200 |  | Fc1cccc(N2CCC[C@@H](Nc3cc(C4CCOCC4)ccn3)C2)c1 [I-92]
43 | 10 to 100 |  | Fc1cccc(N2CCC[C@@H](n3ccc(N4CCOCC4)c4ccnc3-4)C2)c1 [I-58]
44 | > 200 |  | c1ccc2cc(N3CCC[C@@H](Nc4cc(N5CCOCC5)ncn4)C3)ccc2c1 [I-389]

Row | Kd (read-out: DCAF1-3 SPR (KD)) [µM] | Kd (DCAF1-3 SPR (KD)) [µM] | SMILES
45 | > 200 |  | NC(=O)C[C@](NC(=O)c1c[nH]nc1-c1ccccc1F)(c1cccc(Cl)c1)C1CC1 [I-254]
46 | > 200 |  | NC(=O)C[C@H](NC(=O)[C@@H]1CC[C@](O)(c2ccccc2)C1)c1cccc(Cl)c1 [I-444]
47 | > 200 |  | CO[C@@H]1C[C@@H](Nc2cc(N3CCOCC3)ncn2)CN(c2cccc(F)c2)C1 [I-164]
48 | > 200 |  | c1ccc2cc(N3CCC[C@@H](Nc4cc(N5CCOCC5)ncn4)C3)ncc2c1 [I-398]
49 | > 200 |  | CCC(=O)N1C[C@H](c2ccc(Br)cc2)[C@@H]1C(=O)Nc1cccc2cccnc12 [I-518]
50 | > 200 |  | C=CC(=O)N1CCC(c2n[nH]cc2C(=O)N[C@@H](CC(N)=O)c2cccc(Cl)c2)CC1 [I-452]
51 | < 10 |  | C[C@H]1CCCCN1c1ccnc(N2CC[C@@H]3[C@H]2CCCN3c2cccc(F)c2)c1 [I-643]
52 | 10 to 100 |  | CC1(C)CCCCN1c1ccnc(N[C@@H]2CCCN(c3cccc(F)c3)C2)c1 [I-658]
53 | > 200 |  | Fc1cccc(N2CCC[C@@H](Nc3nc(N4CCOCC4)c[nH]3)C2)c1 [I-326]
54 | 10 to 100 |  | C=CC(=O)NCC1CCN(c2ccnc(N3CC[C@@H]4[C@H]3CCCN4c3cccc(F)c3)c2)CC1 [I-665]
55 | > 200 |  | Fc1cccc(N2CCC[C@@H](Nc3cc(N4C[C@H]5C[C@@H](C4)O5)ncn3)C2)c1 [I-311]
56 | > 200 |  | COc1ncccc1-c1[nH]ncc1C(=O)N[C@@H](CC(N)=O)c1cccc(Cl)c1 [I-504]
57 | > 200 |  | NC(=O)C[C@H](NC(=O)c1cn[nH]c1[C@H]1CCCOC1)c1cccc(Cl)c1 [I-345]
58 | > 200 |  | O=C(N[C@H](c1cccc(Cl)c1)c1ccon1)c1c[nH]nc1-c1ccccc1F [I-232]
59 | < 10 |  | CC1CC=C(c2[nH]ncc2C(=O)N[C@@H](CC(N)=O)c2cccc(Cl)c2)CC1 (stereo partly shown) [I-611]
60 | 10 to 100 |  | c1ccc2c(N3CCC[C@@H](Nc4nccc(N5CCOCC5)n4)C3)ccnc2c1 [I-35]
61 | > 200 |  | c1cnc2cc(N3CCC[C@@H](Nc4cc(N5CCOCC5)ncn4)C3)ccc2c1 [I-403]
62 | 10 to 100 |  | OCCC[C@@H]1C[C@H]2[C@H](CCCN2c2cccc(F)c2)N1c1cc(N2CCCCC2)ccn1 [I-830]
63 | > 200 |  | O=CNc1ccc(N2CCC[C@@H]3[C@H]2CCN3c2cc(N3CCCCC3)ccn2)cc1F [I-761]
64 | 10 to 100 |  | c1csc(-c2ccc(N3CCC[C@@H](Nc4cc(N5CCOCC5)ccn4)C3)cc2)c1 [I-695]
65 | < 10 |  | Cc1c(F)ccc(F)c1-c1c(C(=O)N[C@@H](CC(N)=O)c2cccc(Cl)c2)c[nH]c1C(=O)c1cccc(C2CCCCC2)c1 [I-732]
66 | > 200 |  | Fc1cccc(N2CCCC3(C2)CN(c2cc(N4CCOCC4)ccn2)C3)c1 [I-221]

Row | Kd (read-out: DCAF1-3 SPR (KD)) [µM] | Kd (DCAF1-3 SPR (KD)) [µM] | SMILES
67 | > 200 |  | N#Cc1cccc(N2CCC[C@@H](Nc3cc(N4CCOCC4)ccn3)C2)c1 [I-771]
68 |  | 10 to 100 | Fc1cccc(N2CCC[C@@H](Nc3cc(N4CCOCC4)ccn3)C2)c1 [I-29, (R)—N—(I-(3-fluorophenyl)piperidin-3-yl)-4-morpholinopyridin-2-amine]
69 | 10 to 100 |  | Fc1cccc(N2CCC[C@@H](Nc3cc(N4CCCC5(CC5)C4)ccn3)C2)c1 [I-573]
70 | > 200 |  | c1cc(N2CCCCC2)cc(N[C@H]2CCC[C@H](C3CCCCC3)C2)n1 [I-750]
71 | > 200 |  | CN(c1cccc(F)c1)C1CCCN(c2cc(N3CCCCC3)ccn2)C1 (stereo not shown) [I-660]
72 | > 200 |  | c1ccc2c(N3CCC[C@@H](Nc4cc(N5CCOCC5)ncn4)C3)nccc2c1 [I-390]
73 | 10 to 100 |  | NC[C@@H]1CCN(c2cccc(F)c2)C[C@H]1Nc1cc(N2CCCCC2)ccn1 [I-1044]
74 | 10 to 100 |  | Cn1nccc1-c1[nH]ncc1C(=O)N[C@@H](CC(N)=O)c1cccc(Cl)c1 [I-157]
75 | > 200 |  | C=CC(=O)Nc1ccc2[nH]nc(C(=O)N[C@@H](CC(N)=O)c3cccc(Cl)c3)c2c1 [I-302]
76 | > 200 |  | CCCCN1CCN(c2ccnc(NC3CCCN(c4cccc(F)c4)C3)n2)CC1 (stereo not shown) [I-26]
77 | < 10 |  | c1cc2ccc(N3CCC[C@@H](Nc4cncc(N5CCOCC5)c4)C3)cc2cn1 [I-366]
78 | > 200 |  | CCOC(=O)Cc1ccc(N2CCC[C@@H](Nc3cc(N4CCOCC4)ccn3)C2)cn1 [I-782]
79 | < 10 |  | COCCOCC[C@H]1CCCN(c2ccnc(N3CC[C@H]4[C@@H]3CCCN4c3cccc(F)c3)c2)C1 [I-715]
80 | 10 to 100 |  | O=C1NCCN1Cc1cccc(N2CCC[C@@H]3[C@H]2CCN3c2cc(N3CCCCC3)ccn2)c1 [I-959]
81 | > 200 |  | Fc1cccc(N2CCC[C@@H](Nc3cc([C@H]4CCCCO4)ccn3)C2)c1 [I-95]
82 | > 200 |  | CC(c1cc(N2CCOCC2)ccn1)(C1CCCN(c2cccc(F)c2)C1)C(F)(F)F (stereo not shown) [I-263]
83 | 10 to 100 |  | NCCNc1ccc(C2CCCCC2)cc1N[C@@H]1CCCN(c2cccc(F)c2)C1 [I-979]
84 | > 200 |  | NC(=O)C[C@H](NC(=O)c1c[nH]nc1-c1cccc2ccnn12)c1cccc(Cl)c1 [I-236]
85 | 10 to 100 |  | NCC(=O)N1CC2(CCCN(c3cccc(F)c3)C2)Nc2cc(N3CCCCC3)ncc21 (stereo not shown) [I-1020]
